Assay results published in US20230079819A1, “COMPOUNDS AND USES THEREOF” (Foghorn Therapeutics Inc., priority 2019, published 2023).
Read-outs that look alike come from different tables or passages of the source.

What was measured:
BRG-1 = target: T1, BRG-1 (Homo sapiens, UniProt P51532); assay: ATPase catalytic activity of BRG-1, ADP-Glo in vitro biochemical assay; settings: 30 nM BRG-1, 400 μM ATP
T1 construct: made in house; host or cells: High Five insect cells

BRM = target: T2, BRM (Homo sapiens, UniProt P51531); assay: ATPase catalytic activity of BRM, ADP-Glo in vitro biochemical assay; settings: 30 nM BRM, 400 μM ATP
T2 construct: made in house; host or cells: High Five insect cells
T2 sequence (P51531 whole entry): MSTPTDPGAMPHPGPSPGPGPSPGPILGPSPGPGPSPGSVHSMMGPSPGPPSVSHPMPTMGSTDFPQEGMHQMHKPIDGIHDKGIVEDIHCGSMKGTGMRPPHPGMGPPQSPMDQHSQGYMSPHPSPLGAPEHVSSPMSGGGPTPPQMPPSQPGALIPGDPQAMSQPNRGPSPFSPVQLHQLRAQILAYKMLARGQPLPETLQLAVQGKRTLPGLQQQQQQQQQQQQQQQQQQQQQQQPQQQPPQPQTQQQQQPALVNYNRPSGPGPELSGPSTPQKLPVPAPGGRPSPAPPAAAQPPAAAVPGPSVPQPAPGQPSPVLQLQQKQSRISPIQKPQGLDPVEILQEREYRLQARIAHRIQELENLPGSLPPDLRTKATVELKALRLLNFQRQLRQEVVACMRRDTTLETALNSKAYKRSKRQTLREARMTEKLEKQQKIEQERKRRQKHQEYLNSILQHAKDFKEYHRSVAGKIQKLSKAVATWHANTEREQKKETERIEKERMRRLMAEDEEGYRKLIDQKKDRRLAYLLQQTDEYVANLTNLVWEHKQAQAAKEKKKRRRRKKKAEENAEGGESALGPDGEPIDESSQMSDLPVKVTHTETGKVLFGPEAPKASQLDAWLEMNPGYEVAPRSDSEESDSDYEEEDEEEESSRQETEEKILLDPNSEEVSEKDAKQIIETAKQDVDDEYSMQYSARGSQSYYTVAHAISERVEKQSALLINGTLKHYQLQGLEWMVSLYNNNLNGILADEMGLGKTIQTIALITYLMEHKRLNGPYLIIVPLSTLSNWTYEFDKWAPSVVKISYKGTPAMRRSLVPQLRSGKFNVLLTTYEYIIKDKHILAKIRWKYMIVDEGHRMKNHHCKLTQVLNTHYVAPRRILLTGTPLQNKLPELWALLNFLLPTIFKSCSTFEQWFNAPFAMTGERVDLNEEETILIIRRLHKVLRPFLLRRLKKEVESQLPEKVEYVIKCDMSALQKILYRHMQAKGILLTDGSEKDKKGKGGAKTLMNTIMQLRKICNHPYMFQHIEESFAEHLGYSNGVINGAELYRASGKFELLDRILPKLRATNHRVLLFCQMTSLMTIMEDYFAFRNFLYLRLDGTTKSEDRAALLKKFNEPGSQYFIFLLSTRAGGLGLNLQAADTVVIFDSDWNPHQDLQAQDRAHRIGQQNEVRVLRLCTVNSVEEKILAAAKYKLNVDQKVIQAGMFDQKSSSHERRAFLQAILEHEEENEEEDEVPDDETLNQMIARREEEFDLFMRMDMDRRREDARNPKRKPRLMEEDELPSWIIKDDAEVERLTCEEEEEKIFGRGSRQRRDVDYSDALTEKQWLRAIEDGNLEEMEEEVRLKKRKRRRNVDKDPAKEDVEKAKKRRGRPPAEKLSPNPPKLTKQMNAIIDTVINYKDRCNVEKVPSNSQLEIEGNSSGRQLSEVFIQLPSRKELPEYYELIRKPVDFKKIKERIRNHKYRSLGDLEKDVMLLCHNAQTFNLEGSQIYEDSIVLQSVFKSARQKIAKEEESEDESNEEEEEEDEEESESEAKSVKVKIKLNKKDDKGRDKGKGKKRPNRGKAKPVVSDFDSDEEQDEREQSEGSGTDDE

[1] = ATPase catalytic activity, read-out: BRG1 IP50
[2] = ATPase catalytic activity, read-out: BRM IP50
[3] = ATPase catalytic activity, read-out: BRG1 IP50 (μM)*
[4] = ATPase catalytic activity, read-out: BRM IP50 (μM)*

T1 sequence (P51532 whole entry): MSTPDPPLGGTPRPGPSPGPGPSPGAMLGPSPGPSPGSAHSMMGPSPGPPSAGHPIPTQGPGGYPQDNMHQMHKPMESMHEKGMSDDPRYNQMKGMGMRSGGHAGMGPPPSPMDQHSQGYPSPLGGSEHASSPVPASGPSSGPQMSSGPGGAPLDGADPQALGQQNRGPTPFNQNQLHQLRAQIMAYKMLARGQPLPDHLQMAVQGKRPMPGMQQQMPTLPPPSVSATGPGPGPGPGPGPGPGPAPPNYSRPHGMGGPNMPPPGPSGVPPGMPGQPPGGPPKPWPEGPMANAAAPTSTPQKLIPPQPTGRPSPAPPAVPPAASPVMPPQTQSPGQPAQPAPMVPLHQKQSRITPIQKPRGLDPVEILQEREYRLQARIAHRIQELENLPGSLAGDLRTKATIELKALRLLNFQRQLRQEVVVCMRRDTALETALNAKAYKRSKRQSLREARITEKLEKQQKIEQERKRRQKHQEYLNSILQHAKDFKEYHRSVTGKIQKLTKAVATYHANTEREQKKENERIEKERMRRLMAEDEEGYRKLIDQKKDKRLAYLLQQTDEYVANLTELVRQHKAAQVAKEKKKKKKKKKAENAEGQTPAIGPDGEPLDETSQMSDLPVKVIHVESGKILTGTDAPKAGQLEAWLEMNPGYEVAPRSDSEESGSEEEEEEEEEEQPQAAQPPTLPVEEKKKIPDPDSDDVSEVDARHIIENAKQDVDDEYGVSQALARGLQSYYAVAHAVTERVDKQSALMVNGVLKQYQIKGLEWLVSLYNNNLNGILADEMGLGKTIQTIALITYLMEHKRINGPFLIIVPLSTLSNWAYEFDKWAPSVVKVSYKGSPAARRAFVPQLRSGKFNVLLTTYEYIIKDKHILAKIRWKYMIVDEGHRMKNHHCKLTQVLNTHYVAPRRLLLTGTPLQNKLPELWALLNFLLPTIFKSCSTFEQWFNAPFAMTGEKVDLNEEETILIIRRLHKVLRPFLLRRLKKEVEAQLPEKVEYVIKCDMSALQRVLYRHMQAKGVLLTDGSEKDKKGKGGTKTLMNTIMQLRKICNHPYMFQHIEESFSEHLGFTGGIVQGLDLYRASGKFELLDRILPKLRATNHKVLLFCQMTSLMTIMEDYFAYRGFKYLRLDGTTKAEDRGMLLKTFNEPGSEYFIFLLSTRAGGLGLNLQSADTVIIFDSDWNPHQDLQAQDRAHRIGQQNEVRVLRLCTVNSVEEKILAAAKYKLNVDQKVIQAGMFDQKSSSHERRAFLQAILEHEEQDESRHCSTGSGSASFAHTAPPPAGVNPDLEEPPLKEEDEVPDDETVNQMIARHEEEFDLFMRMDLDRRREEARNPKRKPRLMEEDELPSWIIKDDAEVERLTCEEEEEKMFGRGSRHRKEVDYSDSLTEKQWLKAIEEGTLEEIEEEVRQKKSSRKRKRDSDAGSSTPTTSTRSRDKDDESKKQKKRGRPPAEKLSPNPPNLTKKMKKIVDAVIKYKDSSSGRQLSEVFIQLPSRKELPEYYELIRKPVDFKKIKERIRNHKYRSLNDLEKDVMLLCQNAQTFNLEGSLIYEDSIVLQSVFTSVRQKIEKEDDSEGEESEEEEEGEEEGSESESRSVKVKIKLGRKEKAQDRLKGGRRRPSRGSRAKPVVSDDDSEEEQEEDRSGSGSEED

IC50 (BRG-1; [1])	IC50 (BRM; [2])	IC50 (BRG-1; [3])	IC50 (BRM; [4])	SMILES	also measured
> 0.01 µM	> 0.01 µM	–	–	COC[C@H](NC(=O)c1ccn(S(C)(=O)=O)c1)C(=O)Nc1nc(-c2cccc(-c3ccn(C)n3)c2)cs1 [Compound 462]	–
–	–	> 1 µM	> 1 µM	CN1CC(OCc2cccc(-c3csc(NC(=O)CNC(=O)c4ccn(C(C)(C)C)c4)n3)c2)C1 [Compound 118, 1-(tert-butyl)-N-(2-((4-(3-(((1-methylazetidin-3-yl)oxy)methyl)phenyl)thiazol-2-yl)amino)-2-oxoethyl)-1H-pyrrole-3-carboxamide]	–
–	–	> 0.01 µM	> 0.01 µM	CS(=O)(=O)n1ccc(C(=O)NCC(=O)Nc2nc(-c3cccc(OC4CCC4)c3)cs2)c1 [Compound 284]	–
> 0.1 µM	> 0.1 µM	–	–	Cc1nnc2n1CCN(c1cccc(-c3csc(NC(=O)CNC(=O)c4ccn(C(C)(C)C)c4)n3)n1)C2 [Compound 655]	–
> 0.01 µM	> 0.01 µM	–	–	CC(C)(C)n1ccc(C(=O)NCC(=O)Nc2nc(-c3cccc(N4CC[C@@H](F)C4)n3)cs2)c1 [Compound 647]	–
> 0.1 µM	> 0.1 µM	–	–	CC(C)(C)n1ccc(C(=O)NCC(=O)Nc2nc(-c3cccc(N4CCC(S(C)(=O)=O)CC4)n3)cs2)c1 [Compound 656]	–
–	–	< 0.01 µM	< 0.01 µM	COC[C@H](NC(=O)c1ccn(S(C)(=O)=O)c1)C(=O)Nc1nc(-c2cc(F)c(F)c(N3C[C@@H](C)O[C@@H](C)C3)c2)cs1 [Compound 380]	–
–	–	> 0.01 µM	> 0.01 µM	CC1(O)CN(c2cccc(-c3csc(NC(=O)CNC(=O)c4ccn(S(C)(=O)=O)c4)n3)c2)C1 [Compound 179]	–
> 0.01 µM	> 0.01 µM	–	–	CS(=O)(=O)n1ccc(C(=O)NCC(=O)Nc2nc(-c3cccc(C4CCCOC4)c3)cs2)c1 (stereo not drawn) [Compound 776, 1-methylsulfonyl-N-[2-oxo-2-[[4-(3-tetrahydropyran-3-ylphenyl)thiazol-2-yl]amino]ethyl]pyrrole-3-carboxamide]	–
< 0.01 µM	< 0.01 µM	–	–	Cc1cc(-c2cccc(-c3csc(NC(=O)CNC(=O)c4ccn(S(C)(=O)=O)c4)n3)c2)c(F)cn1 [Compound 413]	–
–	–	> 0.01 µM	< 0.01 µM	COC[C@H](NC(=O)c1ccn(C(C)(C)C)c1)C(=O)Nc1nc(-c2ccnc(N3C[C@@H](C)O[C@@H](C)C3)n2)cs1 [Compound 381]	–
–	–	> 0.01 µM	< 0.01 µM	CS(=O)(=O)n1ccc(C(=O)NCC(=O)Nc2nc(-c3cccc(OC[C@H]4CCOC4)c3)cs2)c1 [Compound 303, 1-methylsulfonyl-N-[2-oxo-2-[[4-[3-[[(3S)-tetrahydrofuran-3-yl]methoxy]phenyl]thiazol-2-yl]amino]ethyl]pyrrole-3-carboxamide]	–
–	–	> 0.1 µM	> 0.01 µM	CO[C@H]1CN(c2cccc(-c3csc(NC(=O)CNC(=O)c4ccn(C(C)(C)C)c4)n3)n2)CC[C@@H]1O (racemic) [Compound 310]	–
> 0.01 µM	> 0.01 µM	–	–	COC[C@H](NC(=O)c1ccn(C2(C)COC2)c1)C(=O)Nc1nc(-c2cccc(-c3ccn(C)n3)c2)cs1 [Compound 572]	–
–	–	> 0.01 µM	> 0.01 µM	COC[C@@H]1CCCN(c2cccc(-c3csc(NC(=O)CNC(=O)c4ccn(C(C)(C)C)c4)n3)n2)C1 [Compound 318]	–
> 0.01 µM	> 0.01 µM	–	–	CC(C)(C)n1ccc(C(=O)NCC(=O)Nc2nc(-c3cccc(N4CCCC(OC(F)F)C4)n3)cs2)c1 (stereo not drawn) [Compound 697]	–
> 0.01 µM	> 0.01 µM	–	–	CC1(n2ccc(C(=O)NCC(=O)Nc3nc(-c4cccc(N5CCC5)c4F)cs3)c2)COC1 [Compound 525]	–
> 0.1 µM	> 0.01 µM	–	–	CN(C)C(=O)N1CCN(c2cccc(-c3csc(NC(=O)CNC(=O)c4ccn(C(C)(C)C)c4)n3)n2)CC1 [Compound 640]	–
–	–	> 0.01 µM	> 0.01 µM	CS(=O)(=O)n1ccc(C(=O)NCC(=O)Nc2nc(-c3cccc(N4CCC(F)(F)C4)c3)cs2)c1 [Compound 225]	–
> 0.1 µM	> 0.01 µM	–	–	CS(=O)(=O)n1ccc(C(=O)NCC(=O)Nc2nc(-c3cccc(N4C[C@H]5C[C@@H]4C[C@@H]5O)c3)cs2)c1 (racemic) [Compound 500]	–
–	–	> 1 µM	> 1 µM	CC(C)(C)[C@H](NC(=O)c1ccn(S(C)(=O)=O)c1)C(=O)Nc1nc(-c2cccc(-c3ccncc3)c2)cs1 [Compound 74, (S)—N-(3,3-dimethyl-1-oxo-1-((4-(3-(pyridin-4-yl)phenyl)thiazol-2-yl)amino)butan-2-yl)-1-(methylsulfonyl)-1H-pyrrole-3-carboxamide]	–
–	–	> 0.1 µM	> 0.01 µM	CNc1cccc(-c2csc(NC(=O)CNC(=O)c3ccn(C(C)(C)C)c3)n2)c1 [Compound 272]	–
> 0.1 µM	> 0.1 µM	–	–	CC(C)(C)n1ccc(C(=O)NCC(=O)Nc2nc(-c3cccc(N4CCN5CCOCC5C4)n3)cs2)c1 (stereo not drawn) [Compound 638]	–
> 0.01 µM	> 0.01 µM	–	–	COC[C@H](NC(=O)c1ccn(C2(C)COC2)c1)C(=O)Nc1nc(-c2ccc3ccn(C)c(=O)c3c2)cs1 [Compound 453]	–

IC50 (BRG-1; [1])	IC50 (BRM; [2])	IC50 (BRG-1; [3])	IC50 (BRM; [4])	SMILES	also measured
> 0.01 µM	> 0.01 µM	–	–	Cn1ncc2ccc(-c3csc(NC(=O)CNC(=O)c4ccn(C(C)(C)C)c4)n3)cc2c1=O [Compound 492]	–
> 0.1 µM	> 0.1 µM	–	–	CC(C)(C)n1ccc(C(=O)NCC(=O)Nc2nc(-c3cccc(C4(O)CC4)n3)cs2)c1 [Compound 395]	–
–	–	< 0.01 µM	< 0.01 µM	CS(=O)(=O)n1ccc(C(=O)NCC(=O)Nc2nc(-c3cccc(-c4ccncc4)c3)cs2)n1 [Compound 45, 1-(methylsulfonyl)-N-(2-oxo-2-((4-(3-(pyridin-4-yl)phenyl)thiazol-2-yl)amino)ethyl)-1H-pyrazole-3-carboxamide]	–
–	–	> 0.01 µM	< 0.01 µM	C[C@@]1(O)CCCN(c2cccc(-c3csc(NC(=O)CNC(=O)c4ccn(S(C)(=O)=O)c4)n3)c2)C1 [Compound 206]	–
< 0.01 µM	< 0.01 µM	–	–	CS(=O)(=O)n1ccc(C(=O)NCC(=O)Nc2nc(-c3cccc(N4CC[C@H]5COC[C@@H]5C4)n3)cs2)c1 [Compound 745]	–
–	–	> 0.01 µM	< 0.01 µM	COC[C@H](NC(=O)c1ccn(S(C)(=O)=O)c1)C(=O)Nc1nc(-c2cccc(N3CCO[C@@H](C)C3)c2)cs1 [Compound 373]	–
–	–	> 0.01 µM	< 0.01 µM	C[C@@H]1CN(c2cccc(-c3csc(NC(=O)CNC(=O)c4ccn(C5(C#N)CC5)c4)n3)c2)C[C@H](C)O1 [Compound 163]	–
–	–	< 0.01 µM	< 0.01 µM	C[C@@H]1CN(c2cccc(-c3csc(NC(=O)CNC(=O)c4ccn(C5(C)CC5)c4)n3)n2)C[C@H](C)O1 [Compound 333]	–
–	–	–	–	COC[C@H](NC(=O)c1ccn(C(C)(C)C#N)n1)C(=O)Nc1nc(-c2cc(C)cc(N3C[C@@H](C)O[C@@H](C)C3)n2)cs1 [Compound 817]	IC50 (BRG-1; read-out: BRG1 IP50): > 0.01 µM; IC50 (BRM; read-out: BRM IP50): > 0.01 µM
> 0.01 µM	> 0.01 µM	–	–	CC(C)(C)n1ccc(C(=O)NCC(=O)Nc2nc(-c3cccc(N4CCN(C5COC5)CC4)n3)cs2)c1 [Compound 440]	–
–	–	–	–	Cn1ccc(-c2cccc(-c3csc(NC(=O)CNC(=O)c4ccn(C5(C)COC5)n4)n3)c2)n1 [Compound 798]	IC50 (BRG-1; read-out: BRG1 IP50): > 0.1 µM; IC50 (BRM; read-out: BRM IP50): > 0.1 µM
> 0.01 µM	> 0.01 µM	–	–	CS(=O)(=O)n1ccc(C(=O)NCC(=O)Nc2nc(-c3cccc(N4CCC(N)C(F)(F)C4)c3)cs2)c1 (stereo not drawn) [Compound 460]	–
> 0.1 µM	> 0.01 µM	–	–	CCCOC(=O)N1CCC(c2csc(NC(=O)CNC(=O)c3ccn(S(C)(=O)=O)c3)n2)CC1 [Compound 765, propyl 4-[2-[[2-[(1-methylsulfonylpyrrole-3-carbonyl)amino]acetyl]amino]thiazol-4-yl]piperidine-1-carboxylate]	–
–	–	> 0.01 µM	< 0.01 µM	CC1(C)CN(c2cccc(-c3csc(NC(=O)CNC(=O)c4ccn(S(C)(=O)=O)c4)n3)c2)CCC1O (stereo not drawn) [Compound 194]	–
> 0.1 µM	> 0.01 µM	–	–	CC(C)(C)n1ccc(C(=O)NCC(=O)Nc2nc(-c3cccc(N4C[C@@H](F)[C@@H](F)C4)n3)cs2)c1 [Compound 664]	–
–	–	< 0.01 µM	< 0.01 µM	CS(=O)(=O)n1ccc(C(=O)NCC(=O)Nc2nc(-c3cccc(N4CC[C@@H](O)[C@@H](F)C4)c3)cs2)c1 [Compound 196]	–
–	–	–	–	C[C@@H]1CN(c2cccc(-c3csc(NC(=O)[C@H](C)NC(=O)c4ccn(C5(C#N)CC5)n4)n3)n2)C[C@H](C)O1 [Compound 795]	IC50 (BRG-1; read-out: BRG1 IP50): > 0.1 µM; IC50 (BRM; read-out: BRM IP50): > 0.01 µM
< 0.01 µM	< 0.01 µM	–	–	COC[C@H](NC(=O)c1ccn(C(C)(C)C#N)c1)C(=O)Nc1nc(-c2cc(F)cc(-c3cnn(C)n3)c2)cs1 [Compound 739]	–
> 0.01 µM	> 0.01 µM	–	–	CS(=O)(=O)n1ccc(C(=O)NCC(=O)Nc2nc(-c3cccc(OC4CCC4)c3F)cs2)c1 [Compound 507]	–
–	–	–	–	COC[C@H](NC(=O)c1cn(C2(C)COC2)cn1)C(=O)Nc1nc(-c2ccc3ccn(C)c(=O)c3c2)cs1 [Compound 804]	IC50 (BRG-1; read-out: BRG1 IP50): > 0.1 µM; IC50 (BRM; read-out: BRM IP50): > 0.1 µM
–	–	> 1 µM	> 1 µM	Cn1cncc1C(=O)NCC(=O)Nc1nc(-c2cccc(C#N)c2)cs1 [Compound 31, N-(2-((4-(3-cyanophenyl)thiazol-2-yl)amino)-2-oxoethyl)-1-methyl-1H-imidazole-5-carboxamide]	–
> 0.01 µM	> 0.01 µM	–	–	CC(C)(C)n1ccc(C(=O)NCC(=O)Nc2nc(-c3cccc(N4CC(O)C4)c3)cs2)c1 [Compound 448]	–
> 0.01 µM	> 0.01 µM	–	–	C[C@]1(n2ccc(C(=O)NCC(=O)Nc3nc(-c4cccc(N5CCC5)c4)cs3)c2)CC1(F)F [Compound 652]	–
> 0.01 µM	> 0.01 µM	–	–	C[C@@H]1Cc2ccc(-c3csc(NC(=O)CNC(=O)c4ccn(S(C)(=O)=O)c4)n3)cc2O1 [Compound 517]	–
